Reference: US5053418A, “Antiprotozoal agents” (Burroughs Wellcome Co., priority 1983, dated 1991)

Tests used:
P.falciparum = experiment: In vitro activity against P.falciparum: inhibition of 3H-adenosine/3H-hypoxanthine incorporation (modified Desjardins); type: cell-based; details: for inhibition at 6.25 pg/mL: 0.00000625 mg/L; for inhibition at 12.5 pg/mL: 0.0000125 mg/L; for inhibition at 0.625 µg/mL: 0.625 mg/L; for inhibition at 1.25 µg/mL: 1.25 mg/L; for ED50 for naphthoquinone / ED50 for Clopidol (4-pyridinol): 2580 min
Method: Each of the two compounds to be tested were dissolved in ethanol at a concentration of 10 mg/L and serially diluted with RPMI 1640 medium and 10% (v/v) human plasma in microtitration plates. P.falciparum-parasitised and fresh blood cells were added together with ^3 H-adenosine or ^3 H-hypoxanthinein RPMI 1640 medium and 10% human plasma. The cultures were then incubated at 37° C. for 43 hours, harvested and the particulate contents collected on glass fibre filter papers which were washed copiously with water using a Cooke Microtiter System (Dynatech Labs. Europe); the filter papers were dried and the radioactivity measured using a scintillation counter. Infected, untreated and uninfected cultures were included as controls. Percent inhibition was correlated with dose to provide an IC50 for each drug alone.
For subsequent combination experiments the individual drug solutions and mixtures thereof were serially diluted.
By the method of Example 1 the effect of a number of naphthoquinone/clopidol (4-pyridinol) combinations on P.falciparum in vitro were determined.

in vivo = details: rat, acute oral, rats
Method: The acute oral LD50 's of compounds of formula (I) in rats were determined by standard techniques.

P.yoelii = experiment: In vivo effect on P.yoelii in mice (inhibition of parasitaemia)
Method: The naphthoquinone and the pyridinol were each suspended in 0.25% (w/v) celacol in water by milling for 16-24 hours at 26° C. The suspensions were subsequently serially diluted with 0.25% (w/v) celacol in water. At time 0, 0.1 ml of a suspension of 10^7 P.yoelii-parasitised red blood cells/ml of phosphate buffered saline were injected intravenously into 15-20 g mice through a tail vein. Groups of 5 mice per treatment were dosed orally at times 6, 22, 30, 46, 54, 70 and 78 hours with 0.2 ml of the drug suspension. Tail-blood smears were taken at 96 hours, stained with Giemsa and the percentage of red blood cells infected determined and compared to untreated, infected controls. Percent inhibition was correlated with dose to provide ED50 values for each drug alone. In subsequent experiments dilutions of the two drugs, alone and in combination were used, and the percentage inhibition of parasitaemia and ED50 values (of each drug at fixed concentrations of the other) were determined. The results are shown respectively in Tables V and VI. A number of combinations of clopidol (4-pyridinol) and naphthoquinones were assayed and compared with each drug alone for their antimalarial effect against P.yoelii in vivo by the method of Example 4.

[1] = Plasmodium falciparum, naphthoquinone alone
[2] = Plasmodium falciparum, 4-pyridinol analogue alone

CCC(C)(C)C1CCC(C2=C(O)C(=O)c3ccccc3C2=O)CC1 (stereo not drawn)
inhibition at 6.25 pg/mL (P.falciparum; [1]): 31%
inhibition at 12.5 pg/mL (P.falciparum; [1]): 51%

CC(=O)OC1=C(C2CCC(C)(C)CC2)C(=O)c2ccccc2C1=O
inhibition at 0.00075 µg/mL (P.falciparum; Plasmodium falciparum, naphthoquinone alone, 0.000750 mg/L): 0%
inhibition at 0.0015 µg/mL (P.falciparum; Plasmodium falciparum, naphthoquinone alone, 0.00150 mg/L): 0%

CC(C)(C)C1CCCC(C2=C(O)C(=O)c3ccccc3C2=O)C1 (stereo not drawn)
inhibition at 0.05 µg/mL (P.falciparum; Plasmodium falciparum, naphthoquinone alone, 0.0500 mg/L): 8%
inhibition at 0.1 µg/mL (P.falciparum; Plasmodium falciparum, naphthoquinone alone, 0.100 mg/L): 24%

O=C1C(O)=C(C2CCCC2)C(=O)c2ccccc21
inhibition at 0.625 µg/mL (P.falciparum; [1]): 0%
inhibition at 1.25 µg/mL (P.falciparum; [1]): 2%

Cc1ccc(C2CCC(C3=C(O)C(=O)c4ccccc4C3=O)CC2)cc1C (stereo not drawn)
inhibition at 0.000125 µg/mL (P.falciparum; Plasmodium falciparum, naphthoquinone alone, 0.000125 mg/L): 15%
inhibition at 0.00025 µg/mL (P.falciparum; Plasmodium falciparum, naphthoquinone alone, 0.00025 mg/L): 30%

CC(C)(C)C1CCC(C2=C(Cl)C(=O)c3ccccc3C2=O)CC1 (stereo not drawn) [2-(4-t-butylcyclohexyl)-3-chloro-1,4-naphthoquinone] [listing 1 of 2 here]
inhibition at 0.0625 µg/mL (P.falciparum; Plasmodium falciparum, naphthoquinone alone, 0.0625 mg/L): 18%
inhibition at 0.125 µg/mL (P.falciparum; Plasmodium falciparum, naphthoquinone alone, 0.125 mg/L): 14%
inhibition at 0.25 µg/mL (P.falciparum; Plasmodium falciparum, naphthoquinone alone, 0.25 mg/L): 17%
inhibition at 0.5 µg/mL (P.falciparum; Plasmodium falciparum, naphthoquinone alone, 0.50 mg/L): 31%
inhibition at 1 µg/mL (P.falciparum; Plasmodium falciparum, naphthoquinone alone, 1.0 mg/L): 55%
inhibition at 2 µg/mL (P.falciparum; Plasmodium falciparum, naphthoquinone alone, 2.0 mg/L): 75%

CC(C)(C)C1CCC(C2=C(Cl)C(=O)c3ccccc3C2=O)CC1 (stereo not drawn) [2-(4-t-butylcyclohexyl)-3-chloro-1,4-naphthoquinone] [listing 2 of 2 here]
ED50 for naphthoquinone (P.falciparum; fixed clopidol 0.000 mg/L (alone)): 0.851 µg/mL
ED50 for naphthoquinone (P.falciparum; fixed clopidol 0.00625 mg/L): 0.699 µg/mL
ED50 for naphthoquinone (P.falciparum; fixed clopidol 0.0125 mg/L): 0.401 µg/mL
ED50 for naphthoquinone (P.falciparum; fixed clopidol 0.0250 mg/L): 0.478 µg/mL
ED50 for naphthoquinone (P.falciparum; fixed clopidol 0.0500 mg/L): 0.447 µg/mL
ED50 for naphthoquinone (P.falciparum; fixed clopidol 0.100 mg/L): 0.287 µg/mL
ED50 for naphthoquinone (P.falciparum; fixed clopidol 0.200 mg/L): 0.198 µg/mL
ED50 for naphthoquinone (P.falciparum; fixed clopidol 0.400 mg/L): 0.155 µg/mL
ED50 for naphthoquinone (P.falciparum; fixed clopidol 0.800 mg/L): 0.0801 µg/mL
ED50 for naphthoquinone (P.falciparum; fixed clopidol 1.60 mg/L): 0.0303 µg/mL
ED50 for naphthoquinone (P.falciparum; fixed clopidol 3.20 mg/L): 0.0075 µg/mL

CC(C)(C)C1CCC(C2=C(O)C(=O)c3ccccc3C2=O)CC1 (stereo not drawn) [2-(4-t-butylcyclohexyl)-3-hydroxy-1,4-naphthoquinone]
LD50 (in vivo): > 1000 mg/kg
inhibition at 15.6 pg/mL (P.falciparum; Plasmodium falciparum, naphthoquinone alone, 0.0000156 mg/L): 0.5%
inhibition at 32.5 pg/mL (P.falciparum; Plasmodium falciparum, naphthoquinone alone, 0.0000325 mg/L): 2%
% inhibition (P.falciparum; naphthoquinone alone, 0.00003125 mg/L): 5%

CCCCCCCCCCCCCC1=C(O)C(=O)c2ccccc2C1=O [(CH2)12 Me]
inhibition at 0.0078 µg/mL (P.falciparum; Plasmodium falciparum, naphthoquinone alone, 0.0078 mg/L): 4%
inhibition at 0.0156 µg/mL (P.falciparum; Plasmodium falciparum, naphthoquinone alone, 0.0156 mg/L): 10%

Cc1nc(C)c(Cl)c(O)c1Cl [Clopidol, 3,5-dichloro-2,6-dimethyl-4-pyridinol, reference compound]
inhibition at 0.8 µg/mL (P.falciparum; Plasmodium falciparum, 4-pyridinol alone, 0.80 mg/L): 44%
inhibition at 1.6 µg/mL (P.falciparum; Plasmodium falciparum, 4-pyridinol alone, 1.6 mg/L): 55%
inhibition at 3.2 µg/mL (P.falciparum; Plasmodium falciparum, 4-pyridinol alone, 3.2 mg/L): 74%
% inhibition (P.falciparum; clopidol (4-pyridinol) alone, 0.10 mg/L, listed as 4-pyridinol): 24%
% inhibition (P.falciparum; clopidol (4-pyridinol) alone, 0.20 mg/L, listed as 4-pyridinol): 18%
% inhibition (P.falciparum; clopidol (4-pyridinol) alone, 0.40 mg/L, listed as 4-pyridinol): 22%
ED50 for Clopidol (4-pyridinol) (P.falciparum; fixed naphthoquinone 0.0 mg/L (alone)): 1.18 (1.44 to 0.980) mg/L
ED50 for Clopidol (4-pyridinol) (P.falciparum; fixed naphthoquinone 0.00781 mg/L): 1.63 mg/L
ED50 for Clopidol (4-pyridinol) (P.falciparum; fixed naphthoquinone 0.0156 mg/L): 0.128 mg/L
ED50 for Clopidol (4-pyridinol) (P.falciparum; fixed naphthoquinone 0.0313 mg/L): 2.57 mg/L
ED50 for Clopidol (4-pyridinol) (P.falciparum; fixed naphthoquinone 0.0625 mg/L): 1.03 (14.2 to 0.405) mg/L
ED50 for Clopidol (4-pyridinol) (P.falciparum; fixed naphthoquinone 0.125 mg/L): 0.578 mg/L
ED50 for Clopidol (4-pyridinol) (P.falciparum; fixed naphthoquinone 0.250 mg/L): 0.074 mg/L
ED50 for Clopidol (4-pyridinol) (P.falciparum; fixed naphthoquinone 0.500 mg/L): 0.052 mg/L
ED50 for Clopidol (4-pyridinol) (P.falciparum; fixed naphthoquinone 1.00 mg/L): 0.0092 mg/L
ED50 for Clopidol (4-pyridinol) (P.falciparum; fixed naphthoquinone 2.00 mg/L): 0.00097 mg/L
ED50 for Clopidol (4-pyridinol) (P.falciparum; fixed naphthoquinone 4.00 mg/L): 0.00012 mg/L
inhibition in vivo at 1.9 mg/kg (P.yoelii; Plasmodium yoelii, po, 96 h, clopidol alone, 1.9 mg/Kg/dose, 7 doses): 6%
inhibition in vivo at 2.5 mg/kg (P.yoelii; Plasmodium yoelii, po, 96 h, clopidol alone, 2.5 mg/Kg × 7): 0%
inhibition in vivo at 3.7 mg/kg (P.yoelii; Plasmodium yoelii, po, 96 h, clopidol alone, 3.7 mg/Kg/dose, 7 doses): 17%
inhibition in vivo at 7.5 mg/kg (P.yoelii; Plasmodium yoelii, po, 96 h, clopidol alone, 7.5 mg/Kg/dose, 7 doses): 13%
inhibition in vivo at 13 mg/kg (P.yoelii; Plasmodium yoelii, po, 96 h, clopidol alone, 13 mg/Kg × 7): 5%
inhibition in vivo at 15 mg/kg (P.yoelii; Plasmodium yoelii, po, 96 h, clopidol alone, 15 mg/Kg/dose, 7 doses): 34%
inhibition in vivo at 30 mg/kg (P.yoelii; Plasmodium yoelii, po, 96 h, clopidol alone, 30 mg/Kg/dose, 7 doses): 61%
ED50 for Clopidol (4-pyridinol) (P.yoelii; fixed naphthoquinone 0.000 (alone)): 22.5 (27.6 to 19.4) mg/Kg/dose
ED50 for Clopidol (4-pyridinol) (P.yoelii; fixed naphthoquinone 0.019): 13.8 (21.5 to 10.7) mg/Kg/dose
ED50 for Clopidol (4-pyridinol) (P.yoelii; fixed naphthoquinone 0.0375): 5.14 (6.22 to 4.23) mg/Kg/dose
ED50 for Clopidol (4-pyridinol) (P.yoelii; fixed naphthoquinone 0.075): 1.87 (2.45 to 1.30) mg/Kg/dose
ED50 for Clopidol (4-pyridinol) (P.yoelii; fixed naphthoquinone 0.15): 0.522 (0.946 to 0.0356) mg/Kg/dose

Cc1nc(C)c(Br)c(O)c1Br [X = Br, R^3 = Me, 3,5-dibromo-2,6-dimethyl-4-pyridinol]
inhibition at 0.125 µg/mL (P.falciparum; Plasmodium falciparum, 4-pyridinol analogue alone, 0.125 mg/L): 2%
inhibition at 0.25 µg/mL (P.falciparum; Plasmodium falciparum, 4-pyridinol analogue alone, 0.25 mg/L): 14%

CCCc1nc(CCC)c(Br)c(O)c1Br [X = Br, R^3 = Pr, 3,5-dibromo-2,6-dipropyl-4-pyridinol]
inhibition at 3.125 µg/mL (P.falciparum; Plasmodium falciparum, 4-pyridinol analogue alone, 3.125 mg/L): 9%
inhibition at 6.25 µg/mL (P.falciparum; Plasmodium falciparum, 4-pyridinol analogue alone, 6.25 mg/L): 15%

CCCc1nc(CCC)c(Cl)c(O)c1Cl [X = Cl, R^3 = Pr, 3,5-dichloro-2,6-dipropyl-4-pyridinol]
inhibition at 0.625 µg/mL (P.falciparum; [2]): 12%
inhibition at 1.25 µg/mL (P.falciparum; [2]): 24%

CC(C)(C)C1CCC(C2=C(Cl)C(=O)c3ccccc3C2=O)CC1 (stereo not drawn) [drawing 6, 2-(4-t-butylcyclohexyl)-3-chloro-1,4-naphthoquinone]
% inhibition (P.falciparum; naphthoquinone alone, 0.125 mg/L): 14%
% inhibition (P.falciparum; naphthoquinone alone, 0.25 mg/L): 17%

CC(C)(C)C1CCC(C2=C(O)C(=O)c3ccccc3C2=O)CC1 (stereo not drawn) [drawing 10]
inhibition at 6.25 pg/mL (P.falciparum; [1]): 17%
inhibition at 12.5 pg/mL (P.falciparum; [1]): 13%
